Measured values: patent US10167262B2, “Herbicidal substituted 3-arylpyrazoles” (FMC CORPORATION, priority 2014, dated 2019)
Read-outs that look alike come from different tables or passages of the source.

Tests used:
Test in all cases: Test C pre-/postemergence greenhouse test, plant response rating 0-100;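 for Plant response rating (0 to 100), Blackgrass: 0 is no effect and 100 is complete control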;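 for Plant response rating (0 to 100), Ragweed: 0 is no effect and 100 is complete control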;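 for Plant response rating, Blackgrass: 0 is no effect and 100 is complete control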;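 for Plant response rating, Ragweed: 0 is no effect and 100 is complete control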
Format in all cases: in vivo
[1] = system: blackgrass (Alopecurus myosuroides); settings: Alopecurus myosuroides; for pest or weed control at 62 g/ha: 62 g ai/ha; for pest or weed control at 125 g/ha: 125 g ai/ha; for pest or weed control at 250 g/ha: 250 g ai/ha; for pest or weed control at 500 g/ha: 500 g ai/ha;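 for all read-outs here: 0 is no effect and 100 is complete control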
Method in brief: (§1)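 Two application timings: preemergence onto seeded loam/sand soil and postemergence onto plants at the 1–4 leaf stage (2–18 cm) in peat/vermiculite medium. Formulation: non-phytotoxic solvent with surfactant. Read-out: visual control rating, 0–100, at 13–15 days after treatment.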

corn (Zea mays) = settings: Zea mays; for Corn plant response rating (crop injury, 0 = no effect, 100 = complete kill) at 250 g/ha: 250 g ai/ha; for Corn plant response rating (crop injury, 0 = no effect, 100 = complete kill) at 500 g/ha: 500 g ai/ha
Method in brief: as §1

[2] = system: galium (catchweed bedstraw, Galium aparine); settings: Galium; for pest or weed control at 62 g/ha: 62 g ai/ha; for pest or weed control at 125 g/ha: 125 g ai/ha; for pest or weed control at 250 g/ha: 250 g ai/ha; for pest or weed control at 500 g/ha: 500 g ai/ha
Method in brief: as §1

[3] = system: johnsongrass (Sorghum halepense); settings: Sorghum halepense; for pest or weed control at 62 g/ha: 62 g ai/ha; for pest or weed control at 125 g/ha: 125 g ai/ha; for pest or weed control at 250 g/ha: 250 g ai/ha; for pest or weed control at 500 g/ha: 500 g ai/ha
Method in brief: as §1

[4] = system: lambsquarters (Chenopodium album); settings: Chenopodium album; for pest or weed control at 62 g/ha: 62 g ai/ha; for pest or weed control at 125 g/ha: 125 g ai/ha; for pest or weed control at 250 g/ha: 250 g ai/ha; for pest or weed control at 500 g/ha: 500 g ai/ha
Method in brief: as §1

[5] = system: large (Lg) crabgrass (Digitaria sanguinalis); settings: Digitaria sanguinalis; for pest or weed control at 62 g/ha: 62 g ai/ha; for pest or weed control at 125 g/ha: 125 g ai/ha; for pest or weed control at 250 g/ha: 250 g ai/ha; for pest or weed control at 500 g/ha: 500 g ai/ha
Method in brief: as §1

[6] = system: morningglory (Ipomoea coccinea); settings: Ipomoea; for pest or weed control at 62 g/ha: 62 g ai/ha; for pest or weed control at 125 g/ha: 125 g ai/ha; for pest or weed control at 250 g/ha: 250 g ai/ha; for pest or weed control at 500 g/ha: 500 g ai/ha
Method in brief: as §1

[7] = system: pigweed (Amaranthus retroflexus); settings: Amaranthus retroflexus; for pest or weed control at 62 g/ha: 62 g ai/ha; for pest or weed control at 125 g/ha: 125 g ai/ha; for pest or weed control at 250 g/ha: 250 g ai/ha; for pest or weed control at 500 g/ha: 500 g ai/ha
Method in brief: as §1

[8] = system: ragweed (common ragweed, Ambrosia elatior); settings: Ambrosia artemisiifolia; for pest or weed control at 62 g/ha: 62 g ai/ha; for pest or weed control at 125 g/ha: 125 g ai/ha; for pest or weed control at 250 g/ha: 250 g ai/ha;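 for all read-outs here: 0 is no effect and 100 is complete control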
Method in brief: as §1

[9] = system: velvetleaf (Abutilon theophrasti); settings: Abutilon theophrasti; for pest or weed control at 62 g/ha: 62 g ai/ha; for pest or weed control at 125 g/ha: 125 g ai/ha; for pest or weed control at 250 g/ha: 250 g ai/ha; for pest or weed control at 500 g/ha: 500 g ai/ha
Method in brief: as §1

[10] = system: winter wheat (Triticum aestivum); settings: Triticum aestivum; for plant injury at 62 g/ha: 62 g ai/ha; for plant injury at 125 g/ha: 125 g ai/ha; for plant injury at 250 g/ha: 250 g ai/ha; for plant injury at 500 g/ha: 500 g ai/ha
Method in brief: as §1

[11] = system: yellow nutsedge (Cyperus esculentus); settings: Cyperus; for pest or weed control at 62 g/ha: 62 g ai/ha; for pest or weed control at 125 g/ha: 125 g ai/ha; for pest or weed control at 250 g/ha: 250 g ai/ha; for pest or weed control at 500 g/ha: 500 g ai/ha
Method in brief: as §1

[12] = post-emergence, Postemergence, scale 0 to 100
[13] = pre-emergence, Preemergence, read-out: Plant response rating, Blackgrass
[14] = post-emergence, Postemergence, read-out: Plant response rating (0 to 100), Galium
[15] = pre-emergence, Preemergence, read-out: Plant response rating, Galium
[16] = post-emergence, Postemergence, read-out: Plant response rating (0 to 100), Johnsongrass
[17] = pre-emergence, Preemergence, read-out: Plant response rating, Johnsongrass
[18] = post-emergence, Postemergence, read-out: Plant response rating (0 to 100), Lambsquarters
[19] = pre-emergence, Preemergence, read-out: Plant response rating, Lambsquarters
[20] = post-emergence, Postemergence, read-out: Plant response rating (0 to 100), Crabgrass, Large
[21] = pre-emergence, Preemergence, read-out: Plant response rating, Crabgrass, Large
[22] = post-emergence, Postemergence, read-out: Plant response rating (0 to 100), Morningglory
[23] = pre-emergence, Preemergence, read-out: Plant response rating, Morningglory
[24] = post-emergence, Postemergence, read-out: Plant response rating (0 to 100), Pigweed
[25] = pre-emergence, Preemergence, read-out: Plant response rating, Pigweed
[26] = post-emergence, Postemergence, read-out: Plant response rating (0 to 100), Ragweed
[27] = pre-emergence, Preemergence, read-out: Plant response rating, Ragweed
[28] = post-emergence, Postemergence, read-out: Plant response rating (0 to 100), Velvetleaf
[29] = pre-emergence, Preemergence, read-out: Plant response rating, Velvetleaf
[30] = post-emergence, Postemergence, read-out: Plant response rating (0 to 100), Wheat
[31] = pre-emergence, Preemergence, read-out: Plant response rating, Wheat
[32] = post-emergence, Postemergence, read-out: Plant response rating (0 to 100), Nutsedge, Yellow
[33] = pre-emergence, Preemergence, read-out: Plant response rating, Nutsedge, Yellow

## COC(OC)(c1ccccc1)c1c[nH]nc1-c1cc(Cl)cc(Cl)c1 [Compound 13, 3-(3,5-dichlorophenyl)-4-(dimethoxyphenylmethyl)-1H-pyrazole]
[1]; post-emergence, Postemergence, read-out: Plant response rating (0 to 100), Blackgrass
  pest or weed control at 62 g/ha: 5%
[1]; post-emergence, Postemergence, scale 0 to 100, read-out: Plant response rating, Blackgrass
  pest or weed control at 125 g/ha: 0%
[1]; [12]
  pest or weed control at 250 g/ha: 0%
  pest or weed control at 500 g/ha: 0%
[1]; [13]
  pest or weed control at 62 g/ha: 10%
  pest or weed control at 125 g/ha: 10%
[1]; pre-emergence, Preemergence
  pest or weed control at 250 g/ha: 50%
  pest or weed control at 500 g/ha: 40%
Corn (Zea mays); post-emergence, Postemergence, 62 g ai/ha
  plant injury at 62 g/ha: 0%
Corn (Zea mays); post-emergence, Postemergence, 125 g ai/ha
  plant injury at 125 g/ha: 0%
Corn (Zea mays); [12]
  Corn plant response rating (crop injury, 0 = no effect, 100 = complete kill) at 250 g/ha: 0%
  Corn plant response rating (crop injury, 0 = no effect, 100 = complete kill) at 500 g/ha: 0%
Corn (Zea mays); pre-emergence, Preemergence, 62 g ai/ha
  Corn plant response rating (crop injury, 0 = no effect, 100 = complete kill) at 62 g/ha: 0%
Corn (Zea mays); pre-emergence, Preemergence, 125 g ai/ha
  Corn plant response rating (crop injury, 0 = no effect, 100 = complete kill) at 125 g/ha: 0%
Corn (Zea mays); pre-emergence, Preemergence
  Corn plant response rating (crop injury, 0 = no effect, 100 = complete kill) at 250 g/ha: 0%
  Corn plant response rating (crop injury, 0 = no effect, 100 = complete kill) at 500 g/ha: 0%
[2]; [14]
  pest or weed control at 62 g/ha: 0%
  pest or weed control at 125 g/ha: 0%
[2]; [12]
  pest or weed control at 250 g/ha: 40%
  pest or weed control at 500 g/ha: 10%
[2]; [15]
  pest or weed control at 62 g/ha: 60%
  pest or weed control at 125 g/ha: 0%
[2]; pre-emergence, Preemergence
  pest or weed control at 250 g/ha: 30%
  pest or weed control at 500 g/ha: 0%
[3]; [16]
  pest or weed control at 62 g/ha: 0%
  pest or weed control at 125 g/ha: 0%
[3]; [12]
  pest or weed control at 250 g/ha: 0%
  pest or weed control at 500 g/ha: 0%
[3]; [17]
  pest or weed control at 62 g/ha: 0%
  pest or weed control at 125 g/ha: 0%
[3]; pre-emergence, Preemergence
  pest or weed control at 250 g/ha: 0%
  pest or weed control at 500 g/ha: 0%
[4]; [18]
  pest or weed control at 62 g/ha: 75%
  pest or weed control at 125 g/ha: 80%
[4]; [12]
  pest or weed control at 250 g/ha: 98%
  pest or weed control at 500 g/ha: 98%
[4]; [19]
  pest or weed control at 62 g/ha: 100%
  pest or weed control at 125 g/ha: 100%
[4]; pre-emergence, Preemergence
  pest or weed control at 250 g/ha: 100%
  pest or weed control at 500 g/ha: 100%
[5]; [20]
  pest or weed control at 62 g/ha: 0%
  pest or weed control at 125 g/ha: 10%
[5]; [12]
  pest or weed control at 250 g/ha: 10%
  pest or weed control at 500 g/ha: 0%
[5]; [21]
  pest or weed control at 62 g/ha: 0%
  pest or weed control at 125 g/ha: 0%
[5]; pre-emergence, Preemergence
  pest or weed control at 250 g/ha: 0%
  pest or weed control at 500 g/ha: 0%
[6]; [22]
  pest or weed control at 62 g/ha: 0%
  pest or weed control at 125 g/ha: 0%
[6]; [12]
  pest or weed control at 250 g/ha: 10%
  pest or weed control at 500 g/ha: 10%
[6]; [23]
  pest or weed control at 62 g/ha: 0%
  pest or weed control at 125 g/ha: 0%
[6]; pre-emergence, Preemergence
  pest or weed control at 250 g/ha: 0%
  pest or weed control at 500 g/ha: 0%
[7]; [24]
  pest or weed control at 62 g/ha: 75%
  pest or weed control at 125 g/ha: 100%
[7]; [12]
  pest or weed control at 250 g/ha: 100%
  pest or weed control at 500 g/ha: 100%
[7]; [25]
  pest or weed control at 62 g/ha: 90%
  pest or weed control at 125 g/ha: 100%
[7]; pre-emergence, Preemergence
  pest or weed control at 250 g/ha: 100%
  pest or weed control at 500 g/ha: 100%
[8]; [26]
  pest or weed control at 62 g/ha: 50%
  pest or weed control at 125 g/ha: 50%
[8]; [12]
  pest or weed control at 250 g/ha: 75%
[8]; post-emergence, Postemergence, 500 g ai/ha, scale 0 to 100
  pest or weed control at 500 g/ha: 80%
[8]; [27]
  pest or weed control at 62 g/ha: 85%
  pest or weed control at 125 g/ha: 100%
[8]; pre-emergence, Preemergence
  pest or weed control at 250 g/ha: 100%
[9]; [28]
  pest or weed control at 62 g/ha: 70%
  pest or weed control at 125 g/ha: 75%
[9]; [12]
  pest or weed control at 250 g/ha: 85%
  pest or weed control at 500 g/ha: 80%
[9]; [29]
  pest or weed control at 62 g/ha: 60%
  pest or weed control at 125 g/ha: 85%
[9]; pre-emergence, Preemergence
  pest or weed control at 250 g/ha: 75%
  pest or weed control at 500 g/ha: 100%
[10]; [30]
  plant injury at 62 g/ha: 0%
  plant injury at 125 g/ha: 0%
[10]; [12]
  plant injury at 250 g/ha: 0%
  plant injury at 500 g/ha: 0%
[10]; [31]
  plant injury at 62 g/ha: 0%
  plant injury at 125 g/ha: 0%
[10]; pre-emergence, Preemergence
  plant injury at 250 g/ha: 0%
  plant injury at 500 g/ha: 0%
[11]; [32]
  pest or weed control at 62 g/ha: 0%
  pest or weed control at 125 g/ha: 0%
[11]; [12]
  pest or weed control at 250 g/ha: 0%
  pest or weed control at 500 g/ha: 0%
[11]; [33]
  pest or weed control at 62 g/ha: 0%
  pest or weed control at 125 g/ha: 0%
[11]; pre-emergence, Preemergence
  pest or weed control at 250 g/ha: 0%
  pest or weed control at 500 g/ha: 0%
